The values that follow come from paper PMC5154250 (Biochemistry, 2016).

In assay [1] the target is T1, PDH (photoreceptor retinol dehydrogenase, isoform C; PDHc) (Drosophila melanogaster, UniProt B7Z062).
T1 sequence (B7Z062 2-261): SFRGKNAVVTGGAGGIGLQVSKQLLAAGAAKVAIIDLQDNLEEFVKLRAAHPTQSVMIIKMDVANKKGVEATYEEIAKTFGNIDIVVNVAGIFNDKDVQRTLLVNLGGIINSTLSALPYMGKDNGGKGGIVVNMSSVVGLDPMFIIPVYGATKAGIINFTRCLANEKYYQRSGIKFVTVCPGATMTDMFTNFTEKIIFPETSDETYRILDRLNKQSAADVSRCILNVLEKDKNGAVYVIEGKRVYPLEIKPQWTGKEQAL
Description: differential scanning fluorimetry. The format is binding. Background: DSF heats the sample and reads unfolding from a dye or from intrinsic fluorescence.

In assay [2] the target is Drosophila melanogaster photoreceptor retinol dehydrogenase (PDH) isoform C (Drosophila melanogaster). Description: crystal structure.

A word on the Kd: it is a measure of binding affinity in units of concentration. Higher therefore signals a looser complex. Compound `NC(=O)c1ccc[n+]([C@@H]2O[C@H](COP(=O)([O-])OP(=O)(O)OC[C@H]3O[C@@H](n4cnc5c(N)ncnc54)[C@H](O)[C@@H]3O)[C@@H](O)[C@H]2O)c1` [NAD^+] came in with a Kd in assay [1] of 170 ± 30 µM. As usually defined, the stoichiometry N is a count of units in the complex or per binding partner. For “Drosophila melanogaster photoreceptor retinol dehydrogenase (PDH) isoform C (enzyme)”, the stoichiometry N in assay [2] worked out at 2.
